Laboratory results published in patent USRE43712E1, “Methods for assaying for antidepressant therapy markers” (The Board of Trustees of the Uniersity of Illinois, priority 2000, dated 2012).
Marks after values point to notes of the source that are not given here.

Experiments:
Type in all cases: cell-based
Gsα [1] = experiment: Sequential detergent extraction (Triton X-100 / Triton X-114) of Gsα from C6-2B glioma membranes; settings: C6-2B cells; for GsαL in Remainder, % of corresponding value in control group / GsαL in Triton X-100 extract, % of corresponding value in control group / GsαL in Triton X-114 extract, % of corresponding value in control group / GsαS in Remainder, % of corresponding value in control group / GsαS in Triton X-100 extract, % of corresponding value in control group / GsαS in Triton X-114 extract, % of corresponding value in control group: mean ± SEM of 4-5 experiments
Description: (§1) C6-2B cells (between passages 20 and 40) were grown in 175-cm^2 flasks in Dulbecco's modified Eagle medium, 4.5 g of glucose/L, 10% bovine serum, in a 10% CO2 atmosphere, at 37° C. for 3 days after splitting. […] Male Sprague-Dawley rats weighing 150-200 g were fed ad libitum and maintained in a 12-h light/dark cycle. […] 36:803-838, 1989]. […] Rat cerebral cortex membranes were prepared according to the method of Rasenick et al. [Nature, 294:560-562; 1981].
Membrane proteins were extracted sequentially from C6-2B or rat synaptic membranes as described [Yan et al., J. Neurochem., 66:1489-1495; 1996]. These membranes were stirred on ice in HEPES (15 mM, pH 7.4) containing 1% Triton X-100 for 60 min followed by centrifugation at 100,000 g for 60 min at 4° C. The supernatant was reserved (Triton X-100 extract), and the resulting pellet was resuspended in Tris (15 mM, pH 7.4) containing 1.4% Triton X-114 and 150 mM NaCl. The solution was stirred for 60 min at 4° C. and centrifuged for 30 min at 100,000 g in the cold. The supernatant was saved (Triton X-114 extract). These supernatants and remaining pellet (remainder) were subjected to sodium dodecyl sulfate (SDS)-polyacrylamide gel electophoresis (PAGE) using 10% gels. All of the extraction buffers contained 1 mM PMSF and 1 mM EGTA.
(§2) Rat cortex membrane, C6-2B cell membranes, or Triton extracts of each membrane preparation were subjected to SDS-PAGE followed by electrotransfer to polyvinylidene difluoride (PVDF) membrane. The PVDF membrane was incubated with a phosphate-buffered saline/Tween 20 Buffer (140 mM NaCl, […]. 0.1% Tween 20, pH 7.4) and 3% bovine serum albumin. The membrane was then incubated with polyclonal rabbit antisera against the various G protein subunits [RM (Gsα) or 116 (Gi1, Gi2, Gi3α)] at a 1:25,000 (RM) or 1:5,000 (116) dilution (see below for source of antibodies). […] Immunoreactivity was detected with an enhanced chemiluminescence (ECL) western blot detection system (Amersham) in accord with the manufacturer's instructions. The developed autoradiographs were analyzed by densitometry.
A membrane-enriched fraction was prepared (see Example 1), and membrane proteins were extracted sequentially with Triton X-100 (Tx 100) and Triton X-114 (Tx 114). Equal amounts of these extracts were subjected to SDS-PAGE and transferred to PVDF membrane. The long and short forms of Gsα (GsαL and GsαS) from different fractions were identified by immunodetection.
Experiments were conducted according to the method set forth in Example 1 to assess the effects of different antidepressants on the detergent extraction of Gsα from C6-2B glioma cells.
The ratios of the percentage of Gsα extracted by the two detergents in the treatment versus control groups were compared and are set forth in Table 2 as percentage of control (i.e., each Triton X-100 extract was compared with the untreated Triton X-100 extract; the same was done for Triton X-114 extracts as well as the remainder).

Gsα [2] = experiment: Content of G protein (Gsα) in C6-2B glioma membranes after antidepressant treatment, quantitative immunoblot
Description: as §1, §2
Purified recombinant GsαL (long form of Gsα; 1-10 ng/lane) was subjected to SDS-PAGE and transferred to PVDF membranes. The blots were incubated with antibody against Gsα (RM) and processed by ECL. Films were analyzed on a Molecular Dynamics densitometer, and the volume of each band was quantified and used to make a standard curve.
Experiments were conducted to determine whether Gsα is quantitatively altered by antidepressant therapy. For quantification of Gsα in C6-2B membrane, a standard curve was created using purified recombinant […]. Pure Gsα (1-20 ng/well) was subjected to SDS-PAGE and transferred to a PVDF membrane, Gsα was immunodetected by antisera against the as subunit of G protein.
To estimate the effect of antidepressant treatment on the amount of Gsα in C6-2B membranes, equal amounts (10 μg) of C6-2B glioma membrane proteins in control and chronically (3 days) antidepressant-treated groups were subjected to SDS-PAGE. Gsα was immunodetected by antisera against the αs subunit of G protein.

Gsα [3] = experiment: Gsα in Triton-insoluble, caveolin-enriched versus Triton-soluble fraction of C6-2B cells (sucrose density gradient, immunoblot); settings: chronic treatment, FIG. 3C
Description: as §2

Gsα [4] = experiment: Cellular localization of Gsα in C6-2B cells, immunofluorescence laser scanning confocal microscopy; settings: 10 μM, 3 days
Description: C6-2B cells (between passages 30 and 50) were plated onto coverslips and allowed to attach overnight in Dulbecco's modified Eagle's medium. 4.5 g/l glucose, 10% bovine serum, and 100 μg/ml penicillin and streptomycin at 37° C. in a humidified 10% CO2 atmosphere. […] Therefore, the latter treatment paradigm was used in these experiments because it was easier to maintain the cell cultures for 3 days. […] The culture media and drug were changed daily. […] After the treatment duration, the cells were incubated in drug-free media for 45 to 60 minutes before fixation.
After treatment, cells were washed once with phosphate-buffered saline (PBS, […] NaCl, 2.6 mM KCl, 5.4 mM NaαPO4 7H2O, pH 7.4) and fixed with ice-cold methanol for 10 minutes. Cells were then washed three times with PBS followed by 2 h of blocking in 5% normal goat serum/0.2% fish skin gelatin in PBS. Primary antibody was added for 1.5 h, Gsα/RM1 (PerkinElmer Life Sciences, Boston, Mass.) 1:50 and Goα (Santa Cruz Biotechnology, Santa Cruz, Calif.) 2 μg/ml, followed by three washes with PBS. Oregon Green-labeled secondary antibody (Molecular Probes, Eugene, Oreg.) was added at a concentration of 8 μg/ml for 1 h followed by three PBS washes. The coverslips were mounted onto slides with Vectashield (Vector Laboratories. Burlingame, Calif.) containing diamidino-2-phenylindole as a mounting medium. Images were acquired using a Zeiss LSM510 laser-scanning confocal microscope (Carl Zeiss Inc., Thornwood, N.Y.). A single 488-nm beam from an argon/krypton laser was used for excitation of the Oregon Green. Differential interference contrast images were also acquired. Five experiments were performed and coverslips were examined. Approximately 2100 cells from control and desipramine-treated coverslips were counted by two investigators blind to the experimental conditions over the course of the five experiments.
The cellular distribution of Gsα was quantified in confocal imaged C6-2B cells using NIH-Image software (http://rsbinfonihpov/nih-image) as describe previously [Southwell et al., Cell Tissue Res., 292:37-45, 1998; Jenkinson et al., Br. J. Pharmacol., 126:131-136, 1999]. Images of 9×1 μm optical, planar sections taken from four randomly selected control and four randomly selected desipramine-treated cells were captured and the middle five sections from each cell were quantified. Total cellular Gsα fluorescence was measured by counting the number of pixels with intensity above threshold (determined by minimum intensity above background in this case 50 pixels). The areas of intensity were numbered and divided visually into those localized to the cell body and those localized to the processes and process tips. The total from each region was divided by the total cell pixel intensity and expressed as a percentage of the total. This was done for each section of each cell and the sections were averaged per cell to give an average percentage total per cell.
In a separate investigation, seven sets of 300 cells each from control group and desipramine-treated cells from five experiments were counted to determine the primary localization (processes and process tips or cell body) of Gsα within these cells. The majority of the cells stained positively for Gsα throughout the entire cell, but there was usually an enhancement in one of these regions. […] The counts are expressed as the ratio of process and process tip localization/cell body localization.
Studies were conducted to determine whether a shift in cellular localization of Gsα occurred in C6-2B cells subjected to antidepressants.
Twenty-one hundred cells from each group (control versus desipramine-treated) over a series of five experiments were examined to quantify the extent of the antidepressant effect. […] Abnormal cells or those not displaying processes were not included in the cell count. Cells (300-450) were counted per experiment and the ratio of category A cells to category B cells for each group is shown in FIG. 8. […]

[5] = C6-2B membranes, 10 μM drug for 3 days, mean ± SEM of 4-5 experiments

SMILES	Shift of Gsα to the less hydrophobic Triton X-100 fraction (Gsα [1])	Quantity of G proteins in membrane, treated versus control (Gsα [2]; C6-2B cells, 10 μM, 3 days, p>0.05)	G protein amount, Total (Gsα [2]; [5])	G protein amount, αsL (Gsα [2]; [5])	G protein amount, αsS (Gsα [2]; [5])	GsαL in the Triton X-114 fraction versus control group (Gsα [1]; 10 μM, 3 days, FIG. 1)	GsαL in Remainder, % of corresponding value in control group (Gsα [1]; 10 μM, 3 days)	GsαL in Triton X-100 extract, % of corresponding value in control group (Gsα [1]; 10 μM, 3 days)	GsαL in Triton X-114 extract, % of corresponding value in control group (Gsα [1]; 10 μM, 3 days)	GsαS in Remainder, % of corresponding value in control group (Gsα [1]; 10 μM, 3 days)	GsαS in Triton X-100 extract, % of corresponding value in control group (Gsα [1]; 10 μM, 3 days)	GsαS in Triton X-114 extract, % of corresponding value in control group (Gsα [1]; 10 μM, 3 days)	Decrease of the amount of Gsα in the caveolin-enriched Triton-insoluble fraction, normalized to equal caveolin (Gsα [3])	Gsα immunofluorescence in cell processes and process tips (Gsα [4])	Cells displaying intense Gsα staining at the process tips (and processes) (Gsα [4]; control 64%)
CC(N)Cc1ccccc1 (stereo not shown) [amphetamine]	without effect	–	–	–	–	–	–	–	–	–	–	–	–	–	–
CN(C)CCC=C1c2ccccc2CCc2ccccc21 [Amitriptyline, amitriptyline]	–	no significant differences	13.10 ± 0.34 ng/10 ug of membrane protein	8.13 ± 0.17 ng/10 ug of membrane protein	4.98 ± 0.21 ng/10 ug of membrane protein	significantly lower	83.4 ± 14.5%	120.3 ± 3.7^b %	84.5 ± 0.8^b %	82.6 ± 5.1^a %	140.3 ± 9.3^b %	92.7 ± 3.8%	–	–	–
CN(C)CCCN1c2ccccc2Sc2ccc(Cl)cc21 [Chlorpromazine, chlorpromazine]	did not exert these effects	–	–	–	–	–	83.8 ± 22.0%	107.4 ± 8.3%	105.7 ± 6.5%	100.4 ± 31.6%	113.4 ± 10.7%	102.2 ± 15.6%	no more than 25%	uniform distribution of Gsα similar to control	68%
